Among the test systems are ACHN renal; BT-549 breast; HCC-2998 colon; HOP-92 NSCLC; HS 578T breast; M14 melanoma; MDA-N; NCI-H460 lung; PC-3 prostate; SF-295 CNS; U251 CNS; UACC-62 melanoma; EKVX NSCLC; NCI-H226 lung.
Common to all, as to assay: inhibition of tumour cell growth, NCI panel, 48 h

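In this assay, cells in 96-well plates receive the compound at five concentrations for 48 hours. Endpoints are linearly interpolated between the surrounding concentrations. At the TGI there is no net growth.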

For the compound `COc1ccc(-c2cc(-c3ccc(Cl)cc3)n(C3OC(CO)C(O)C(O)C3O)c(=S)c2C#N)cc1` (centres undefined), the TGI is over 100 µM in the test on ACHN renal; over 100 µM with BT-549 breast; over 100 µM with HCC-2998 colon; over 100 µM in the test with HOP-92 NSCLC; over 100 µM in the test with HS 578T breast; 89.7 µM in the test on M14 melanoma. The TGI in the test with MDA-N, in the test with NCI-H460 lung, with PC-3 prostate, in the test with SF-295 CNS, in the test with U251 CNS and with UACC-62 melanoma was over 100 µM in each case.
In the case of `O=C1c2cccc3cccc(c23)C(=O)N1CCCNCCCCNCCCN1C(=O)c2cccc3cccc(c23)C1=O`, the TGI with ACHN renal is 6.47 µM; with BT-549 breast it was 3.02 µM; in the test on EKVX NSCLC, 3.28 µM; in the test on HCC-2998 colon it was 0.568 µM; in the test on HOP-92 NSCLC, 1.59 µM; in the test on HS 578T breast, 0.216 µM. In addition, the TGI in the test on M14 melanoma was 1.94 µM; with MDA-N it was 1.47 µM; in the test with NCI-H226 lung, 2.5 µM; in the test on PC-3 prostate it was 1.05 µM; with SF-295 CNS it was 3.4 µM; with U251 CNS, 1.22 µM. The TGI in the test with UACC-62 melanoma is 1.44 µM.
Consider `CCC(CC)C(=O)OC[n+]1ccc(-c2c(COC(=O)NC(C)C)c(COC(=O)NC(C)C)c3n2CCC3)cc1`, for which the TGI in the test with BT-549 breast, in the test on EKVX NSCLC, in the test on HCC-2998 colon, with HOP-92 NSCLC, with HS 578T breast and with M14 melanoma was over 100 µM in each case. Also, the TGI in the test with MDA-N, in the test on NCI-H226 lung, with PC-3 prostate, in the test on SF-295 CNS and with U251 CNS was over 100 µM throughout.
With `N#Cc1nc(C2CC2)oc1N`, the TGI with ACHN renal, in the test on BT-549 breast, in the test on EKVX NSCLC, with HCC-2998 colon, with HOP-92 NSCLC and with HS 578T breast was over 100 µM in each case. The TGI in the test with M14 melanoma, with MDA-N, in the test on NCI-H226 lung, in the test on PC-3 prostate, in the test on SF-295 CNS and with U251 CNS was over 100 µM in each case. In addition, in the test on UACC-62 melanoma, the TGI is over 100 µM.
Turning to `N#Cc1nc(CSCc2ccccc2)oc1N`, the TGI with ACHN renal, in the test on BT-549 breast, in the test with HCC-2998 colon, in the test on HOP-92 NSCLC, in the test with HS 578T breast and in the test on M14 melanoma was over 100 µM in each case. Also, the TGI with MDA-N, in the test on NCI-H226 lung, with NCI-H460 lung, with PC-3 prostate, in the test on SF-295 CNS and with U251 CNS was over 100 µM each time. Also, the TGI in the test with UACC-62 melanoma is over 100 µM.
For `CC1CC(=O)Nc2cc(Cl)ccc2N1C(=O)C1CC1` (centres undefined), the TGI in the test on ACHN renal, with BT-549 breast, with EKVX NSCLC, in the test on HCC-2998 colon, in the test with HOP-92 NSCLC and in the test on HS 578T breast was over 100 µM each time. Besides, the TGI in the test with M14 melanoma, with MDA-N, with NCI-H226 lung, in the test with NCI-H460 lung, in the test with PC-3 prostate and in the test with SF-295 CNS was over 100 µM throughout. Also, the TGI in the test on U251 CNS is over 100 µM.
In the case of `Nc1nc(N)c(C2=CCN(Cc3ccccc3)CC2)c(=O)[nH]1`, the TGI in the test on ACHN renal, in the test with BT-549 breast, with EKVX NSCLC, in the test with HOP-92 NSCLC, in the test with HS 578T breast and with M14 melanoma was over 100 µM in each case. For the same compound, the TGI in the test on MDA-N, in the test on NCI-H226 lung, in the test on NCI-H460 lung, with PC-3 prostate, with SF-295 CNS and with U251 CNS was over 100 µM throughout. The TGI with UACC-62 melanoma was over 100 µM.
`NC(=O)C(c1ccccc1)N1OC2C(=O)N(Cc3ccccc3)C(=O)C2C1c1cccc(Oc2ccc(Cl)cc2)c1` (centres undefined): the TGI in the test on ACHN renal is 39.9 µM; in the test on BT-549 breast, over 100 µM; in the test on EKVX NSCLC, 67.2 µM; in the test on HOP-92 NSCLC, over 100 µM; in the test on HS 578T breast, over 100 µM; with M14 melanoma, 69.5 µM. Also, the TGI in the test on MDA-N is 49.7 µM; in the test with NCI-H226 lung, over 100 µM; with NCI-H460 lung, 90.1 µM; in the test with PC-3 prostate, over 100 µM; with SF-295 CNS, over 100 µM; in the test with U251 CNS it was 85.6 µM. Also, in the test with UACC-62 melanoma, the TGI was 32.3 µM.
As to `COC(=O)c1ccccc1/C=C1/Cc2cccc(C)c2C1=O`, the TGI in the test on ACHN renal, with BT-549 breast, in the test on EKVX NSCLC, with HCC-2998 colon, in the test on HOP-92 NSCLC and in the test with HS 578T breast was over 100 µM each time. Further, the TGI in the test with MDA-N, with NCI-H226 lung, with NCI-H460 lung, with PC-3 prostate, in the test on SF-295 CNS and in the test on U251 CNS was over 100 µM each time. Besides, the TGI in the test with UACC-62 melanoma was over 100 µM.
With `O=C(O)c1nc2cc(C(F)(F)F)ccc2nc1Nc1ccc(Cl)c(Cl)c1`, the TGI with ACHN renal came to 36 µM; in the test on BT-549 breast, 27.5 µM; with EKVX NSCLC, 42.4 µM; with HOP-92 NSCLC it was 23.1 µM; in the test on HS 578T breast, 37.8 µM; in the test with M14 melanoma it was 26 µM. Moreover, the TGI with MDA-N amounted to 69.2 µM; in the test on NCI-H226 lung, 34 µM; with NCI-H460 lung it was 26.3 µM; with PC-3 prostate, 16.1 µM; in the test with SF-295 CNS it was 31.7 µM; with U251 CNS it was 33.6 µM. For the same compound, the TGI in the test with UACC-62 melanoma amounted to 25 µM.
`NC(=O)c1cc(-c2ccc(-n3ccnc3)cc2)n[nH]c1=O`: the TGI in the test on ACHN renal, with BT-549 breast, with EKVX NSCLC, with HCC-2998 colon, in the test with HOP-92 NSCLC and in the test on HS 578T breast was over 100 µM in each case. Moreover, the TGI in the test with M14 melanoma, in the test with MDA-N, with NCI-H460 lung, with PC-3 prostate, in the test on U251 CNS and in the test with UACC-62 melanoma was over 100 µM throughout.

The values above are taken from PubChem BioAssay (NCI).
